The record followed here is US9067943B2, “[1,2,3]triazolo[4,5-D]pyrimidine derivatives” (priority 2011, dated 2015).

Structures are written as SMILES. Like-named read-outs stand apart in the source and are kept apart here. A value given as a limit tells only on which side of the number the result lay.

In one assay the target is T1, human CB1 receptors (Homo sapiens, UniProt P21554).
T1 construct: expressed in transfected cells; host or cells: CHO cells
Nature of the assay: cAMP assay. The assay is classed as cell-based. An outline of the steps: (§1)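 CHO cells expressing human CB1 or CB2 were preincubated 30 min at 30 °C in Krebs Ringer bicarbonate buffer with 1 mM IBMX, then exposed to compounds for 30 min at 30 °C. cAMP was measured by time-resolved FRET against a cAMP standard curve, and EC50 values were derived.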
(Changes in cAMP serve as a functional read-out for many G protein-coupled receptors.)

A further assay has as its target T2, human CB2 receptors (Homo sapiens, UniProt P34972).
T2 construct: expressed in transfected cells; host or cells: CHO cells
Briefly: cAMP assay. It counts as cell-based. Put shortly: as §1

[1] abbreviates: functional cAMP assay, CHO cells expressing human CB2, read-out: human CB2 EC50.

T1 sequence (P21554 whole entry): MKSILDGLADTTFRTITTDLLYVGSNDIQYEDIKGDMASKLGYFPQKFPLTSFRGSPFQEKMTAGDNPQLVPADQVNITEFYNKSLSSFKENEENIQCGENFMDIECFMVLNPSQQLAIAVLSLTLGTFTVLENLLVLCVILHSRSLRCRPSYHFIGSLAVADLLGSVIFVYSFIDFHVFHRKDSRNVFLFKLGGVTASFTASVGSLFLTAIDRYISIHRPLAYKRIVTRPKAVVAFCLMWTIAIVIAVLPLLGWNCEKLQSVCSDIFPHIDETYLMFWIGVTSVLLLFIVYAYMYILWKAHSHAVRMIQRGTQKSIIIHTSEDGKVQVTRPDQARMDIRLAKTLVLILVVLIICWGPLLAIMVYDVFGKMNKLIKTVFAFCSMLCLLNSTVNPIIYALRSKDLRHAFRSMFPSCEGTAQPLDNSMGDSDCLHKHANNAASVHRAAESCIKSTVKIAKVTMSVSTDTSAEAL
T2 sequence (P34972 whole entry): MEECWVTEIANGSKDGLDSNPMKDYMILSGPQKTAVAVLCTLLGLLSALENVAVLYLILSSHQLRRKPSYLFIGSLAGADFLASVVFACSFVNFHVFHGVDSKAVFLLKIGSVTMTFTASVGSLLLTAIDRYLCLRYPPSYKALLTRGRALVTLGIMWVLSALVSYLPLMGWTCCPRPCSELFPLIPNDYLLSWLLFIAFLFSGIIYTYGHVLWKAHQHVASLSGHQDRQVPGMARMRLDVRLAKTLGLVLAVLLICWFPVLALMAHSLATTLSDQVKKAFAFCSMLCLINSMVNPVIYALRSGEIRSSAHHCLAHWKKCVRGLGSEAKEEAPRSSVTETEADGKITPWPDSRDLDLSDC

Take `CC(C)(C)c1nc(N2CC[C@](C)(O)C2)c2nn(Cc3ccccc3S(C)(=O)=O)nc2n1` [Example 126-a, (S)-1-[5-tert-Butyl-2-(2-methanesulfonyl-benzyl)-2H-[1,2,3]triazolo[4,5-d]pyrimidin-7-yl]-3-methyl-pyrrolidin-3-ol]: the EC50 (commonly the concentration giving half of the maximal effect) was above 10 µM at human CB1 receptors and 10.6 nM on human CB2 receptors.

Regarding `O[C@H]1CCN(c2nc(OCC(F)(F)F)nc3nn(Cc4ccccc4Cl)nc23)C1` [Example 109, (S)-1-[2-(2-Chloro-benzyl)-5-(2,2,2-trifluoro-ethoxy)-2H-[1,2,3]triazolo[4,5-d]pyrimidin-7-yl]-pyrrolidin-3-ol], the EC50 was above 10 µM on human CB1 receptors and 107 nM on human CB2 receptors (setting [1]).

`Cn1nnnc1Cn1nc2nc(C(C)(C)C)nc(N3CC[C@@H](O)C3)c2n1` [Example 113, (R)-1-[5-tert-Butyl-2-(1-methyl-1H-tetrazol-5-ylmethyl)-2H-[1,2,3]triazolo[4,5-d]pyrimidin-7-yl]-pyrrolidin-3-ol]: the EC50 is above 10 µM on human CB1 receptors and 1660 nM on human CB2 receptors.

Turning to `Cc1nnc(Cn2nc3nc(C(C)(C)C)nc(N4CC[C@](C)(O)C4)c3n2)o1` [Example 128-a, (S)-1-[5-tert-Butyl-2-(5-methyl-[1,3,4]oxadiazol-2-ylmethyl)-2H-[1,2,3]triazolo[4,5-d]pyrimidin-7-yl]-3-methyl-pyrrolidin-3-ol], the EC50 at human CB1 receptors was above 10 µM; at human CB2 receptors, 70.2 nM.

As to `CC(C)(C)c1nc(N2CCC(F)(F)C2)c2nn(Cc3cccc(C(F)(F)F)c3Cl)nc2n1` [Example 56, 5-tert-Butyl-2-(2-chloro-3-trifluoromethyl-benzyl)-7-(3,3-difluoro-pyrrolidin-1-yl)-2H-[1,2,3]triazolo[4,5-d]pyrimidine], the results for the EC50 on human CB1 receptors and at human CB2 receptors were above 10 µM and 12.6 nM, respectively.

With `COc1ccccc1Cn1nc2nc(C(C)(C)C)nc(N3CCC(F)(F)C3)c2n1` [Example 23, 5-tert-Butyl-7-(3,3-difluoro-pyrrolidin-1-yl)-2-(2-methoxy-benzyl)-2H-[1,2,3]triazolo[4,5-d]pyrimidine], the EC50 at human CB1 receptors worked out at 0.086 µM; on human CB2 receptors it was 0.2 nM.

For the molecule `CC(C)(C)c1nc(N2CCC(F)(F)C2)c2nn(CCc3ccccc3Cl)nc2n1` [Example 41, 5-tert-Butyl-2-[2-(2-chloro-phenyl)-ethyl]-7-(3,3-difluoro-pyrrolidin-1-yl)-2H-[1,2,3]triazolo[4,5-d]pyrimidine], the figures for the EC50 at human CB1 receptors and on human CB2 receptors were 0.498 µM and 0.5 nM, respectively.

As for `CC(C)(C)c1nc(N2CCOCC2)c2nn(Cc3ccccc3Cl)nc2n1` [Example 1, 5-tert-Butyl-2-(2-chloro-benzyl)-7-morpholin-4-yl-2H-[1,2,3]triazolo[4,5d]pyrimidine], the EC50 on human CB1 receptors was above 10 µM; at human CB2 receptors it was 3.3 nM.

Regarding `Cn1nnnc1Cn1nc2nc(C(C)(C)C)nc(N3CC[C@@](C)(O)C3)c2n1` [Example 130-b, (R)-1-[5-tert-Butyl-2-(1-methyl-1H-tetrazol-5-ylmethyl)-2H-[1,2,3]triazolo[4,5-d]pyrimidin-7-yl]-3-methyl-pyrrolidin-3-ol], the half-maximal effective concentration (EC50) is above 10 µM on human CB1 receptors and 798 nM on human CB2 receptors (setting [1]).

With `CC(=O)N[C@H]1CCN(c2nc(O[C@@H](C)C(F)(F)F)nc3nn(Cc4ccccc4S(C)(=O)=O)nc23)C1` [Example 143, N—{(S)-1-[2-(2-Methanesulfonyl-benzyl)-5-((S)-2,2,2-trifluoro-1-methyl-ethoxy)-2H-[1,2,3]triazolo[4,5-d]pyrimidin-7-yl]-pyrrolidin-3-yl}-acetamide], the figures for the EC50 at human CB1 receptors and on human CB2 receptors (setting [1]) were above 10 µM and 1730 nM, respectively.
